Data reported in patent US9452986B2, “6-heteroaryloxy- or 6-aryloxy-quinoline-2-carboxamides and method of use” (AbbVie Inc., priority 2014, dated 2016).
Where two headings read alike, the source gives them in different places.

Target: recombinant human Nav1.7 (Homo sapiens (Human), UniProt Q15858)
Assay: FRET-based membrane potential assay, recombinant human sodium channel Nav1.7
Assay type: cell-based
Conditions: read-out: FRET-Membrane Potential Nav1.7 IC50
Outline: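 Channel activation used veratridine at its EC80, set by a dilution curve each experiment, together with Leiurus scorpion venom, added 3 min after compound. Membrane-potential ratio signals from FLIPR Tetra in HEPES-buffered HBSS were fitted to a four-parameter Hill equation for percent inhibition and IC50.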

[1] = HEK293 cells stably expressing recombinant human Nav1.7, veratridine + scorpion venom depolarization

Chain of recombinant human Nav1.7 (Q15858 whole entry): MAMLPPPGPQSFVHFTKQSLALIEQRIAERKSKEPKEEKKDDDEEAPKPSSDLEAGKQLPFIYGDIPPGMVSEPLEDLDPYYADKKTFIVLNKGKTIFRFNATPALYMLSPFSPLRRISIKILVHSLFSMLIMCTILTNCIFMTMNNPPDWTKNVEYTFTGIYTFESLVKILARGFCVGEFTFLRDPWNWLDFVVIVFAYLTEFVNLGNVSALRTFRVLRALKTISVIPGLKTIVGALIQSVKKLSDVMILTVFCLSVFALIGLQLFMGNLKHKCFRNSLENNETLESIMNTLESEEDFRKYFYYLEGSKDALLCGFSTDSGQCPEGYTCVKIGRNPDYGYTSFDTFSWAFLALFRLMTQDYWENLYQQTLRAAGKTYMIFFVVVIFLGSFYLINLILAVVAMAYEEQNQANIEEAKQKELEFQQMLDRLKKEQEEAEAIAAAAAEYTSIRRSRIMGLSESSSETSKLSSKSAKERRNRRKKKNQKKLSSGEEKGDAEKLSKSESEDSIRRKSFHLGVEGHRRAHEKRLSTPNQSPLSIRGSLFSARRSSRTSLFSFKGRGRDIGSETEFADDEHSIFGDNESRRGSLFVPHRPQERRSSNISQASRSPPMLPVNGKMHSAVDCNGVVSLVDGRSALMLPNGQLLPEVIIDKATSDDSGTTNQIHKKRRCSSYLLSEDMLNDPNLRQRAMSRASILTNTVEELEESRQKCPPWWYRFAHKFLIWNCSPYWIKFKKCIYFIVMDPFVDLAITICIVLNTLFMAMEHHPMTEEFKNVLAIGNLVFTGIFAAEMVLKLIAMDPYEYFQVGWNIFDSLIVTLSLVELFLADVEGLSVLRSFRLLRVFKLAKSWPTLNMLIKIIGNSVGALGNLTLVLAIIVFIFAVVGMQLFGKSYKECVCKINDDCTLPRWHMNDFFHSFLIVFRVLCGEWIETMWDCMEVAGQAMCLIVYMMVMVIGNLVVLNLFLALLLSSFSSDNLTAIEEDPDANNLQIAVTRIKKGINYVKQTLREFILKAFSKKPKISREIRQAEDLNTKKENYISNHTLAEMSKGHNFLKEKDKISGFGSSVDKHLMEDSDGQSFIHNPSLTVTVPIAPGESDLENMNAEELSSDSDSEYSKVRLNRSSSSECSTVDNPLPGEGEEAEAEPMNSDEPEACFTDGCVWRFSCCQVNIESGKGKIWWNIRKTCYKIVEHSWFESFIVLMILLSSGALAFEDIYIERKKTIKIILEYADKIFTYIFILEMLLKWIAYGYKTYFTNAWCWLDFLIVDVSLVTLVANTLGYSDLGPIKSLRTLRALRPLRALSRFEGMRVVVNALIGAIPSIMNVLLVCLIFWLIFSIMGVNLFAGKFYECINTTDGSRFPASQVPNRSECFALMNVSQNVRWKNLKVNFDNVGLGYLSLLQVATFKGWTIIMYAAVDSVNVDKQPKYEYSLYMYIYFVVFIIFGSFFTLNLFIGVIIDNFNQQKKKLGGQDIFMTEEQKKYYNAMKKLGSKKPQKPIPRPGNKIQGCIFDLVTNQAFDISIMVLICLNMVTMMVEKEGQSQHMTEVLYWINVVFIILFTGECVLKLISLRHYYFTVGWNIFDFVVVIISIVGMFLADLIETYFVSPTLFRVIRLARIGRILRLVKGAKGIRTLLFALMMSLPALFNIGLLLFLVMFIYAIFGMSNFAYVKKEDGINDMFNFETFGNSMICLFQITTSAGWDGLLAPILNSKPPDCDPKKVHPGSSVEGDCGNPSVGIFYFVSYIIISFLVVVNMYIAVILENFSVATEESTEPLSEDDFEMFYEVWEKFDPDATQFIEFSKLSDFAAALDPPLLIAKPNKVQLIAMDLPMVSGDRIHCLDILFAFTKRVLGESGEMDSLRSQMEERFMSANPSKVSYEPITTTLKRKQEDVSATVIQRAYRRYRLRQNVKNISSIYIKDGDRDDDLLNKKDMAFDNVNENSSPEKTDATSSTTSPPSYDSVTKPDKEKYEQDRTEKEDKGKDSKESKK

Row | Molecule | IC50 [1] | IC50
1 | O=C(c1ccc2cc(Oc3ccc(C(F)(F)F)cn3)ccc2n1)N1CCC(F)(F)CC1 [Example 330, (4,4-difluoropiperidin-1-yl)(6-{[5-(trifluoromethyl)pyridin-2-yl]oxy}quinolin-2-yl)methanone] | 2950 nM | 
2 | Cc1c(S(=O)(=O)N2CCN(C(=O)c3ccc4cc(Oc5ccc(C(F)(F)F)cn5)ccc4n3)CC2)cnn1C [Example 390, {4-[(1,5-dimethyl-1H-pyrazol-4-yl)sulfonyl]piperazin-1-yl}(6-{[5-(trifluoromethyl)pyridin-2-yl]oxy}quinolin-2-yl)methanone] | 2340 nM | 
3 | O=C(N[C@@H]1CC[C@@H]2CN(Cc3ccccc3)C[C@@H]21)c1ccc2cc(Oc3ccc(C(F)(F)F)cn3)ccc2n1 [Example 259, N-[(3aR,4R,6aS)-2-benzyloctahydrocyclopenta[c]pyrrol-4-yl]-6-{[5-(trifluoromethyl)pyridin-2-yl]oxy}quinoline-2-carboxamide] |  | 2060 nM
4 | O=C(c1ccc2cc(Oc3ccc(C(F)(F)F)cn3)ccc2n1)N1CCC(C(F)(F)F)C1 (centres unmarked) [Example 414, (6-{[5-(trifluoromethyl)pyridin-2-yl]oxy}quinolin-2-yl)[3-(trifluoromethyl)pyrrolidin-1-yl]methanone] | 5020 nM | 
5 | O=C(NCC1C[S+]([O-])C1)c1ccc2cc(Oc3ccc(C(F)(F)F)cn3)ccc2n1 (centres unmarked) [Example 601, N-[(1-oxidothietan-3-yl)methyl]-6-{[5-(trifluoromethyl)pyridin-2-yl]oxy}quinoline-2-carboxamide] | 2510 nM | 
6 | COc1cccc(N2CCN(C(=O)c3ccc4cc(Oc5ccc(C(F)(F)F)cn5)ccc4n3)CC2=O)c1 [Example 498, 1-(3-methoxyphenyl)-4-[(6-{[5-(trifluoromethyl)pyridin-2-yl]oxy}quinolin-2-yl)carbonyl]piperazin-2-one] | 923 nM | 
7 | O=C(NN1CCOCC1)c1ccc2cc(Oc3ccc(C(F)(F)F)cn3)ccc2n1 [Example 281, N-(morpholin-4-yl)-6-{[5-(trifluoromethyl)pyridin-2-yl]oxy}quinoline-2-carboxamide] | 1280 nM | 
8 | O=C(c1ccc2cc(Oc3ccc(C(F)(F)F)cn3)ccc2n1)N1CCC(N2CC(F)(F)C2)CC1 [Example 540, [4-(3,3-difluoroazetidin-1-yl)piperidin-1-yl](6-{[5-(trifluoromethyl)pyridin-2-yl]oxy}quinolin-2-yl)methanone] |  | 4030 nM
9 | [cis-2,2-dimethyltetrahydro-5H-[1,3]dioxolo[4,5-c]pyrrol-5-yl](6-{[5-(trifluoromethyl)pyridin-2-yl]oxy}quinolin-2-yl)methanone [Example 373] | 3700 nM | 
10 | O=C(NC1CC(N2CCOCC2)C1)c1ccc2cc(Oc3ccc(C(F)(F)F)nc3)ccc2n1 (centres unmarked) [Example 574, N-[3-(morpholin-4-yl)cyclobutyl]-6-{[6-(trifluoromethyl)pyridin-3-yl]oxy}quinoline-2-carboxamide] | 295 nM | 
11 | N#Cc1ccc(Oc2ccc3nc(C(=O)N[C@@H]4CCOC4)ccc3c2)cc1 [Example 117, 6-(4-cyanophenoxy)-N-[(3R)-tetrahydrofuran-3-yl]quinoline-2-carboxamide] |  | 2230 nM
12 | CC(C)OC(=O)N1CCN(C(=O)c2ccc3cc(Oc4ccc(C(F)(F)F)cn4)ccc3n2)CC1 [Example 277, isopropyl 4-[(6-{[5-(trifluoromethyl)pyridin-2-yl]oxy}quinolin-2-yl)carbonyl]piperazine-1-carboxylate] | 3090 nM | 
13 | O=C(NC1(CO)CC1)c1ccc2cc(Oc3ccc(C(F)(F)F)cn3)ccc2n1 [Example 380, N-[1-(hydroxymethyl)cyclopropyl]-6-{[5-(trifluoromethyl)pyridin-2-yl]oxy}quinoline-2-carboxamide] | 3000 nM | 
14 | O=C(c1ccc2cc(Oc3ccc(C(F)(F)F)cn3)ccc2n1)N1CCC[C@@H](O)C1 [Example 581, [(3R)-3-hydroxypiperidin-1-yl](6-{[5-(trifluoromethyl)pyridin-2-yl]oxy}quinolin-2-yl)methanone] |  | 12600 nM
